Test results: ChEMBL document CHEMBL1201862, “PubChem BioAssay data set” (2004)
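Cells were grown in 96-well plates and exposed to each compound for 48 hours at five concentrations; endpoints were interpolated linearly between bracketing concentrations, or set to the highest concentration if not reached. The concentration for 50% growth inhibition is given as GI50.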 Calls of active or inactive are those of the source. Rule as the data show it: active = GI50 up to about 1.1 µM and inactive = higher.

Legend:
Experiment in all cases: inhibition of tumour cell growth, NCI panel, 48 h
COLO 205 = system: COLO 205
EKVX = system: EKVX
HCC 2998 = system: HCC 2998
HOP-92 = system: HOP-92
HT-29 = system: HT-29
K562 = system: K562
MDA-MB-435 = system: MDA-MB-435
MDA-N = system: MDA-N
Malme-3M = system: Malme-3M
NCI-H23 = system: NCI-H23
NCI-H460 = system: NCI-H460
OVCAR-5 = system: OVCAR-5
OVCAR-8 = system: OVCAR-8
RPMI-8226 = system: RPMI-8226
SK-MEL-28 = system: SK-MEL-28
SK-MEL-2 = system: SK-MEL-2
SNB-19 = system: SNB-19
SW-620 = system: SW-620
TK-10 = system: TK-10
U-251 = system: U-251

Measured: GI50

O=C(O)CCCCn1cnc2c(S)ncnc21
inactive: COLO 205 > 100 µM | EKVX > 100 µM | HCC 2998 > 100 µM | HOP-92 > 100 µM | HT-29 > 100 µM | K562 > 100 µM | MDA-MB-435 > 100 µM | MDA-N > 100 µM | Malme-3M > 100 µM | NCI-H23 > 100 µM | NCI-H460 > 100 µM | OVCAR-5 > 100 µM | OVCAR-8 > 100 µM | RPMI-8226 > 100 µM | SK-MEL-28 > 100 µM | SK-MEL-2 > 100 µM | SNB-19 > 100 µM | SW-620 > 100 µM | TK-10 > 100 µM | U-251 > 100 µM

CCc1nc2cc(/N=N/c3c(O)ccc4ccccc34)ccc2[nH]1
inactive: COLO 205 21.2 µM | EKVX 19.1 µM | HCC 2998 14.6 µM | HOP-92 20.5 µM | HT-29 19.4 µM | K562 8.59 µM | MDA-MB-435 19.7 µM | MDA-N 23.8 µM | Malme-3M 18.3 µM | NCI-H23 21.2 µM | NCI-H460 16.1 µM | OVCAR-5 17.5 µM | OVCAR-8 14.5 µM | RPMI-8226 10.5 µM | SK-MEL-28 20.3 µM | SK-MEL-2 19.8 µM | SNB-19 31.3 µM | SW-620 22.5 µM | TK-10 18.4 µM | U-251 16 µM

COc1cccc(C2c3cc4c(cc3OC(Nc3ccccc3)C2C)OCO4)c1OC (stereo not given)
inactive: COLO 205 4.98 µM | EKVX 19.8 µM | HCC 2998 74.1 µM | HOP-92 5.43 µM | HT-29 11.2 µM | K562 2.64 µM | MDA-MB-435 14.8 µM | MDA-N 34.8 µM | Malme-3M 6.31 µM | NCI-H23 42 µM | NCI-H460 3.43 µM | OVCAR-5 44.5 µM | OVCAR-8 16.3 µM | RPMI-8226 1.64 µM | SK-MEL-28 41.3 µM | SK-MEL-2 4.55 µM | SNB-19 > 100 µM | SW-620 7.85 µM | TK-10 6.46 µM | U-251 5.94 µM

COc1cc(-c2[o+]c3cc(O)cc(OC4OC(CO)C(O)C(O)C4O)c3cc2OC2OC(CO)C(O)C(O)C2O)cc(OC)c1O (stereo not given)
inactive: COLO 205 > 100 µM | EKVX > 100 µM | HCC 2998 > 100 µM | HOP-92 > 100 µM | HT-29 > 100 µM | K562 > 100 µM | MDA-MB-435 > 100 µM | MDA-N > 100 µM | Malme-3M > 100 µM | NCI-H23 > 100 µM | NCI-H460 > 100 µM | OVCAR-5 > 100 µM | OVCAR-8 > 100 µM | RPMI-8226 > 100 µM | SK-MEL-28 > 100 µM | SK-MEL-2 > 100 µM | SNB-19 > 100 µM | SW-620 > 100 µM | TK-10 > 100 µM | U-251 > 100 µM

CC(=O)NCCC1CN(C(=O)/C=C\I)c2ccccc21 (stereo not given)
inactive: COLO 205 11.7 µM | EKVX 17.3 µM | HCC 2998 15.2 µM | HOP-92 21.7 µM | HT-29 11.7 µM | K562 3.76 µM | MDA-MB-435 14.2 µM | MDA-N 12.6 µM | Malme-3M 15.2 µM | NCI-H23 16.4 µM | NCI-H460 9.75 µM | OVCAR-5 16.6 µM | OVCAR-8 16.2 µM | RPMI-8226 2.08 µM | SK-MEL-28 16 µM | SK-MEL-2 16 µM | SNB-19 20.4 µM | SW-620 12.7 µM | TK-10 6.17 µM | U-251 12.9 µM

N#Cc1c(N2CCCC2)nsc1Nc1ccc(F)cc1
inactive: COLO 205 > 100 µM | EKVX 19.7 µM | HCC 2998 > 100 µM | HOP-92 > 100 µM | HT-29 > 100 µM | K562 > 100 µM | MDA-MB-435 > 100 µM | MDA-N > 100 µM | Malme-3M > 100 µM | NCI-H23 > 100 µM | NCI-H460 > 100 µM | OVCAR-5 > 100 µM | OVCAR-8 78 µM | RPMI-8226 > 100 µM | SK-MEL-28 > 100 µM | SK-MEL-2 > 100 µM | SNB-19 > 100 µM | SW-620 > 100 µM | TK-10 > 100 µM | U-251 > 100 µM

N#Cc1nc(/C=C/c2ccccc2)oc1N
inactive: COLO 205 > 100 µM | EKVX > 100 µM | HCC 2998 > 100 µM | HOP-92 > 100 µM | HT-29 > 100 µM | K562 > 100 µM | MDA-MB-435 > 100 µM | MDA-N > 100 µM | Malme-3M > 100 µM | NCI-H23 > 100 µM | NCI-H460 > 100 µM | OVCAR-5 > 100 µM | OVCAR-8 > 100 µM | RPMI-8226 34.5 µM | SK-MEL-28 > 100 µM | SK-MEL-2 > 100 µM | SNB-19 > 100 µM | SW-620 > 100 µM | TK-10 > 100 µM | U-251 > 100 µM
